Measured values published in US11542302B2, “Modulators of melanocortin receptors for the treatment of depression and anxiety” (ARIZONA BOARD OF REGENTS ON BEHALF OF THE UNIVERSITY OF …, priority 2015, dated 2023).

Target: hMC5R (Homo sapiens, UniProt P33032)
Experiment: hMC5R intracellular cAMP accumulation
Assay type: cell-based
Settings: relative to MT-II

Sequence of hMC5R (P33032 whole entry): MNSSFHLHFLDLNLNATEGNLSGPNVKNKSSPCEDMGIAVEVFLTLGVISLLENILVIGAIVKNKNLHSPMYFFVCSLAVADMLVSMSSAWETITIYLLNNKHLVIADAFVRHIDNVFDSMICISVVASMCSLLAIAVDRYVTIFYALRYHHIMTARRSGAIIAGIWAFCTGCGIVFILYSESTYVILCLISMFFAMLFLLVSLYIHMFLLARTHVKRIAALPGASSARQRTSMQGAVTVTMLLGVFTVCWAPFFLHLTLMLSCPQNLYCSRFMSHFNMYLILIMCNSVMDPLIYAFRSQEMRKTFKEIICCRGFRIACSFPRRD

% Act at 10 μM (% of cAMP produced at 10 μM ligand concentration, in relation to MT-II): 0%
SMILES: N=C(N)NCCC[C@@H]1NC(=O)[C@@H](Cc2ccccc2)NC(=O)[C@H](CC2CCCCC2)NC(=O)c2cc([N+](=O)[O-])ccc2SC[C@@H](C(N)=O)NC(=O)[C@H](Cc2c[nH]c3ccccc23)NC1=O [compound 2]
